This note sets out measurements from PubChem BioAssay AID330 (DTP/NCI, 2004).

For this experiment, the system named is P388 leukemia ip, CD2F1 mice, survival T/C. Description: NCI In Vivo Anticancer Drug Screen. Data for tumor model P388 Leukemia (intraperitoneal) in CD2F1 (CDF1) mice. The following applies: endpoint: median survival time, higher = longer survival. An outline of the steps: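 Mice carrying the transplanted tumor received test compound or vehicle. Survival was recorded in each group, and the value is the treated-group measurement divided by that of the vehicle-treated control group.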

Setting [1] is: dose: 25.0 mg/kg/injection, schedule: Q01DX009 (ip), vehicle: saline.
[2] abbreviates: dose: 50.0 mg/kg/injection, schedule: Q01DX009 (ip), vehicle: saline.
The mark [3] stands for this setting: dose: 50.0 mg/kg/injection, schedule: Q01DX009 (ip), vehicle: saline with Tween-80.
Setting [4] is: dose: 100.0 mg/kg/injection, schedule: Q01DX009 (ip), vehicle: saline with Tween-80.
Setting [5] is: dose: 200.0 mg/kg/injection, schedule: Q01DX009 (ip), vehicle: saline with Tween-80.
[6] abbreviates: dose: 100.0 mg/kg/injection, schedule: Q04DX003 (ip), vehicle: Klucel (hydroxypropylcellulose) (HPC).
[7] abbreviates: dose: 200.0 mg/kg/injection, schedule: Q04DX003 (ip), vehicle: Klucel (hydroxypropylcellulose) (HPC).
The mark [8] stands for this setting: dose: 400.0 mg/kg/injection, schedule: Q04DX003 (ip), vehicle: Klucel (hydroxypropylcellulose) (HPC).
Setting [9] is: dose: 60.0 mg/kg/injection, schedule: Q01DX005 (ip), vehicle: Klucel (hydroxypropylcellulose) (HPC).
[10] abbreviates: dose: 120.0 mg/kg/injection, schedule: Q01DX005 (ip), vehicle: Klucel (hydroxypropylcellulose) (HPC).

The structures appear in SMILES notation. Several values for one entry are separate records, joined by “and”; a condition that tells them apart may be missing. Equal entries are not always repeated. Toxic doses and inconclusive results are not listed.

As for `C=C(CC(=O)O)C(=O)O` (tested in a mixture with another compound), the T/C is, setting by setting: (dose: 12.5 mg/kg/injection, schedule: Q01DX009 (ip), vehicle: saline) 100 % of control; under setting [1], 100 % of control; under setting [2], 100 % of control.

`Cc1cccc2c1CC(C(C)C)C2` (configuration not stated): the T/C reads like this: (dose: 25.0 mg/kg/injection, schedule: Q01DX009 (ip), vehicle: saline with Tween-80) 111 % of control and 89 % of control; under setting [3], 108 % of control and 96 % of control; under setting [4], 104 % of control and 107 % of control; under setting [5], 90 % of control.

In the case of `O=S1(=O)C=C(Br)CO1`, the T/C by setting is: (dose: 100.0 mg/kg/injection, schedule: Q04DX003 (ip), vehicle: saline with Tween-80) 106 % of control; (dose: 200.0 mg/kg/injection, schedule: Q04DX003 (ip), vehicle: saline with Tween-80) 106 % of control; (dose: 400.0 mg/kg/injection, schedule: Q04DX003 (ip), vehicle: saline with Tween-80) 97 % of control.

As to `OC12CC3C4CC(O1)C1C4CC3C12` (configuration not stated), the T/C is, setting by setting: (dose: 60.0 mg/kg/injection, schedule: Q01DX005 (ip), vehicle: saline) 102 % of control; (dose: 120.0 mg/kg/injection, schedule: Q01DX005 (ip), vehicle: saline) 109 % of control; (dose: 240.0 mg/kg/injection, schedule: Q01DX005 (ip), vehicle: saline) 109 % of control.

`Cc1ccc(S(=O)(=O)N/N=C/C(C)(c2ccccc2)c2ccccc2)cc1`: the T/C by setting is: under setting [1], 92 % of control; under setting [2], 99 % of control and 90 % of control; (dose: 100.0 mg/kg/injection, schedule: Q01DX009 (ip), vehicle: saline) 99 % of control and 94 % of control; (dose: 200.0 mg/kg/injection, schedule: Q01DX009 (ip), vehicle: saline) 97 % of control.

In the case of `COc1ccc(N2CCN(CC(O)COc3cc4c(c5c3CCCC5)CCCC4)CC2)cc1` (configuration not stated), the T/C reads like this: under setting [6], 104 % of control; under setting [7], 94 % of control; under setting [8], 108 % of control.

For `Cc1ccc(S(=O)(=O)NC(=O)C2C(=O)CC3(CCCCC3)CC2=O)cc1`, the T/C is 117 % of control (dose: 50.0 mg/kg/injection, schedule: Q01DX009 (ip), vehicle: Klucel (hydroxypropylcellulose) (HPC)); 123 % of control (dose: 100.0 mg/kg/injection, schedule: Q01DX009 (ip), vehicle: Klucel (hydroxypropylcellulose) (HPC)); 124 % of control (dose: 200.0 mg/kg/injection, schedule: Q01DX009 (ip), vehicle: Klucel (hydroxypropylcellulose) (HPC)).

On to `Fc1cccc(Cl)c1C(Nc1nc2ccccc2s1)Nc1nc2ccccc2s1`, for which the T/C reads like this: under setting [9], 98 % of control; under setting [10], 101 % of control; (dose: 240.0 mg/kg/injection, schedule: Q01DX005 (ip), vehicle: Klucel (hydroxypropylcellulose) (HPC)) 95 % of control.

`COC(=O)c1nc(=S)[nH]c(C(=O)OC)c1C(=O)c1ccc(N2CCN(c3ccc(C(=O)c4c(C(=O)OC)nc(=S)[nH]c4C(=O)OC)cc3)CC2)cc1`: the T/C by setting is: (dose: 60.0 mg/kg/injection, schedule: Q01DX005 (ip), vehicle: suspension in saline) 99 % of control; (dose: 120.0 mg/kg/injection, schedule: Q01DX005 (ip), vehicle: suspension in saline) 97 % of control; (dose: 240.0 mg/kg/injection, schedule: Q01DX005 (ip), vehicle: suspension in saline) 100 % of control.

As to `CCCCCCCCC(O)CCC` (configuration not stated), the T/C was 100 % of control (dose: 100.0 mg/kg/injection, schedule: Q04DX003 (ip), vehicle: saline); 100 % of control (dose: 200.0 mg/kg/injection, schedule: Q04DX003 (ip), vehicle: saline); 100 % of control (dose: 400.0 mg/kg/injection, schedule: Q04DX003 (ip), vehicle: saline).

On to `CN1CC(=O)N=C1N`, for which the T/C was 100 % of control under setting [6], 100 % of control under setting [7] and 105 % of control under setting [8].

Turning to `O=C(O)/C=N/NS(=O)(=O)/C=C/c1ccccc1`, the T/C is 166 % of control (dose: 25.0 mg/kg/injection, schedule: Q01DX009 (ip), vehicle: distilled water + Tween-80); 172 % of control (dose: 50.0 mg/kg/injection, schedule: Q01DX009 (ip), vehicle: distilled water + Tween-80); 112 % of control (dose: 100.0 mg/kg/injection, schedule: Q01DX009 (ip), vehicle: distilled water + Tween-80).

Turning to `CCOC(=O)CC1CC(C)(C(=O)OCC)C(=O)CC1=O` (configuration not stated), the T/C (dose: 50.0 mg/kg/injection, schedule: Q01DX005 (ip), vehicle: saline with Tween-80) is 102 % of control; the T/C (dose: 100.0 mg/kg/injection, schedule: Q01DX005 (ip), vehicle: saline with Tween-80) was 104 % of control; the T/C (dose: 200.0 mg/kg/injection, schedule: Q01DX005 (ip), vehicle: saline with Tween-80) was 95 % of control.

Take `COC(=O)C12CCC(CC1C13CCCC(C)(C)C1C(=O)OC3)C(C)C2O` (configuration not stated): the T/C is 96 % of control (dose: 100.0 mg/kg/injection, schedule: Q04DX002 (ip), vehicle: saline with Tween-80); 94 % of control (dose: 200.0 mg/kg/injection, schedule: Q04DX002 (ip), vehicle: saline with Tween-80); 94 % of control (dose: 400.0 mg/kg/injection, schedule: Q04DX002 (ip), vehicle: saline with Tween-80).

In the case of `COc1cccc2c1C(=O)c1c(O)c3c(c(O)c1C2=O)CC(O)(C(C)=O)CC3OC1CC(SC)C(OC(C)=O)C(C)O1` (configuration not stated), the T/C by setting is: (dose: 3.13 mg/kg/injection, schedule: Q04DX003 (ip), vehicle: distilled water + Tween-80) 100 % of control; (dose: 3.13 mg/kg/injection, schedule: Q04DX003 (ip), vehicle: water) 101 % of control; (dose: 6.25 mg/kg/injection, schedule: Q04DX003 (ip), vehicle: distilled water + Tween-80) 105 % of control; (dose: 6.25 mg/kg/injection, schedule: Q04DX003 (ip), vehicle: water) 96 % of control; (dose: 12.5 mg/kg/injection, schedule: Q04DX003 (ip), vehicle: distilled water + Tween-80) 97 % of control; (dose: 12.5 mg/kg/injection, schedule: Q04DX003 (ip), vehicle: water) 97 % of control. Also, the T/C is 100 % of control (dose: 25.0 mg/kg/injection, schedule: Q04DX003 (ip), vehicle: distilled water + Tween-80); 100 % of control (dose: 25.0 mg/kg/injection, schedule: Q04DX003 (ip), vehicle: water); 110 % of control (dose: 50.0 mg/kg/injection, schedule: Q04DX003 (ip), vehicle: distilled water + Tween-80); 96 % of control (dose: 50.0 mg/kg/injection, schedule: Q04DX003 (ip), vehicle: water).

In the case of `Cc1ccc([N+](=O)[O-])cc1NC(=O)Oc1cc(C)c(Br)c(C)c1`, the T/C is, setting by setting: under setting [3], 106 % of control; under setting [4], 106 % of control; under setting [5], 112 % of control.

Regarding `COc1cc2c3cc1Oc1c(OC)c(OC)cc4c1[C@@H](Cc1ccc(OC)c(c1OC)Oc1ccc(cc1)C[C@@H]3N(C)CC2)N(C)CC4`, the T/C was 103 % of control (dose: 3.63 mg/kg/injection, schedule: Q01DX005 (ip), vehicle: Klucel (hydroxypropylcellulose) (HPC)); 99 % of control (dose: 7.25 mg/kg/injection, schedule: Q01DX005 (ip), vehicle: Klucel (hydroxypropylcellulose) (HPC)); 102 % of control (dose: 14.5 mg/kg/injection, schedule: Q01DX005 (ip), vehicle: Klucel (hydroxypropylcellulose) (HPC)); 93 % of control (dose: 29.0 mg/kg/injection, schedule: Q01DX005 (ip), vehicle: Klucel (hydroxypropylcellulose) (HPC)); 109 % of control (dose: 58.0 mg/kg/injection, schedule: Q01DX005 (ip), vehicle: Klucel (hydroxypropylcellulose) (HPC)).

Turning to `COc1nc(Cl)cn(C)c1=O`, the T/C (dose: 15.0 mg/kg/injection, schedule: Q01DX005 (ip), vehicle: saline with Tween-80) is 101 % of control; the T/C (dose: 30.0 mg/kg/injection, schedule: Q01DX005 (ip), vehicle: saline with Tween-80) is 98 % of control; the T/C under setting [9] is 95 % of control; the T/C (dose: 60.0 mg/kg/injection, schedule: Q01DX005 (ip), vehicle: saline with Tween-80) is 107 % of control; the T/C under setting [10] was 106 % of control.
